# According to patent US8906694B2, “Organometallic fluorescent sensors for nitric oxide detection and imaging” (The Florida International University Board of Trustees, priority 2012, dated 2014):
# What was measured:
# [1] = Fluorescence spectroscopy NO sensing in solution after addition of NO donor MAHMA-NONOate; conditions: NO donor MAHMA-NONOate in buffer solution; aerobic and anaerobic conditions for the THF complex
# Description: A pilot Re(I)-phenanthroline complex: Re(phen)(CO)2(THF)(CF3SO3) complex was synthesized from Re(phen)(CO)3(CF3SO3) (Scheme 3) by photochemical substitution of a CO with THF in situ and was tested for NO sensing by fluorescence spectroscopy after the addition of the NO donor: MAHMA-NONOate (Cayman Pharmaceuticals) at the are 10 μM-200 μM range (FIGS. 1 and 2). […] It is worth mentioning the dye is highly sensitive to NO, since it is only used at a concentration of only 10 μM, and responds to concentrations of NO donor in the μM level as well (FIG. 5). […] Furthermore live cell experiments with Re(phen)(CO)2(THF)(CF3SO3) prepared by thermal substitution gave similar results.
# A stepwise experimental protocol for preparation and testing of the Rhenium organometallic sensor and comparison with existing technology is as follows: • 1) Preparation of a stock solution of a 2.0 mM NO donor solution by dissolving 0.6 mg of (Z)-1-[N-Methyl-N-[6-(N-methylammoniohexyl)amino]]diazen-1-ium-1,2-diolate (Methylamine hexamethylene methylamine NONOate or MAHMA NONOate) in 0.01 M NaOH. Solution is kept at 4° C. until use. • 2) Preparation of a 1.0 mM stock solution of probe LRe(CO)3(OSO2CF3) in DMSO or THF (L is phen or substituted analog). For the Re probe the solution is undergoing the following steps: […]
# [2] = test system: Rat Aortic Endothelial Cells; assay: Fluorescence microscopy NO imaging in living cells with NO donor addition; assay type: cell-based; conditions: for absorptivity of the dye into the cells: living cells, fluorescence microscopy
# Description: Rat Aortic Endothelial Cells acquired from Cell Biologics were used for the cell based experiments. Fetal Bovine Serum (FBS) and DMSO were bought from ATCC. Penicillin-Streptomycin and endothelial cell growth supplement from bovine neural tissue were bought from Sigma Aldrich. DMEM/F-12 medium, PBS and Trypsin (0.05% EDTA) were bought from Invitrogen. Cell culture flasks and dishes were bought from Fisher Scientific. MAHMA/NO was bought from Cayman Chemicals.
# Cell culture: Rat Aortic Endothelial Cells were grown (passage 4-10) in DMEM/F-12 medium supplemented with 10% FBS, 1% penicillin-streptomycin, and endothelial cell growth supplement in a humidified tissue culture incubator at 37° C. equilibrated with 95% air/5% CO2. For experimentation, cells were cultured in 35×10 mm dishes seeded with 2×10^5 cells and used at 60-80% confluency.
# After the loading phase with the organometallic Re-complex (10 μM for 45 min) cells were rinsed off excess dye using PBS buffer solution. This was followed by an exposure to 10 μM MAHMA/NO for 10-15 minutes. Images were then acquired with a fluorescence microscope (Olympus IX 81 fitted with a CCD camera (Qimaging) at 350 nm (excitation) and 450 nm (emission) with 20× zoom, with exposition time of 2668 ms. The data were analyzed with IPLAB software (BioVision Technologies).
# Conditions of incubator: 37° C., 21% O2, 5% CO2, with cell culture harvested and plated for at least 24 hours.
# […] of Re(phen)(THF)(CO)2(CF3SO3) or Re(phen)(CO)2(PPh3)(CF3SO3) (1.6×10^−3 M) was prepared in THF. 62.5 μL of this solution was added to 138 μL of acetone. This new solution was added to 800 μL of 10 mM PBS (Phosphate Buffer Saline) buffer solution, resulting in v/v ratios of 6% THF, 14% acetone, and 80% Buffer. This new solution was further diluted 1/10 with PBS Buffer before added to the cells, resulting to final solvent composition of 0.6% THF, 1.4% acetone, and 98% v/v aqueous buffer. This final solution contains the organometallic Re dye at 10 μM concentration, (solution A) before contact with NO donor solutions.
# A blank (0 μM NO donor: MAHMA NONOate) and 3 stock solutions (100 μM, 500 μM, 1 mM) MAHMA NONOate were prepared in NaOH 0.01M, which after addition to the media result to final NO donor concentrations of 0 μM, 1 μM, 5 μM, 10 μM.
# The old media were poured out from the plates. The plates were rinsed 2 times with 1 mL PBS 10 mM. The next reagents were added to each plate in the following order: […] of DMEM/FBS/Penicillin Media, […] of PBS 10 mM, and 100 μL of Re complex stock in 20% organic mixture. The plates were incubated for 75 minutes.
# The reactive media was poured out from the plate. The plates were rinsed 2 times with 1 mL PBS 10 mM. […]
Structure (SMILES),fluorescent response to NO donor addition in solution [1],toxicity to the cells ([2]; at the 10 μM level),absorptivity of the dye into the cells ([2]; dye 10 μM),"fluorescence response to NO donor addition in living cells ([2]; dye 10 μM, MAHMA-NONOate 0-10 μM, λexc=350 nm, λem=450 nm)"
O=[C]=[Re]1(=[C]=O)([O]S(=O)(=O)C(F)(F)F)([PH](c2ccccc2)(c2ccccc2)c2ccccc2)[N]2C=CC=c3ccc4c(c32)[N]1C=CC=4 [Re(phen)(CO)2(PPh3)(CF3SO3)],shows response to NO addition,no toxicity,good dye absorptivity into cells,–
C1CCOC1.O=[C]=[Re]1(=[C]=O)([O]S(=O)(=O)C(F)(F)F)[N]2C=CC=c3ccc4c(c32)[N]1C=CC=4 [Re(phen)(CO)2(THF)(CF3SO3)],responds directly to NO,–,good absorptivity,direct response
